Converted amounts (≈) assume the structure as drawn.
What was measured:
[1] = test system: Methicillin-resistant S. aureus ATCC 43300; assay: microbe, parasite or virus in culture; settings: ATCC 43300, 24 h
Method in brief: (§1)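 Each compound was serially diluted twofold in Mueller Hinton broth, spanning 8 to 0.003 µg mL^−1, and incubated with bacteria for 24 h at 37 °C before visual scoring of growth.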

[2] = test system: Vancomycin-resistant (VanA) Enterococcus faecium ATCC 51559; assay: microbe, parasite or virus in culture; settings: ATCC 51559
Method in brief: as §1

[3] = test system: Multi-drug-resistant S. pneumoniae ATCC 700677; assay: microbe, parasite or virus in culture; settings: ATCC 700677
Method in brief: as §1

[4] = test system: Vancomycin-intermediate S. aureus NRS1; assay: microbe, parasite or virus in culture; settings: Vancomycin-intermediate NRS1
Method in brief: as §1

Cytotoxicity MTT assay [5] = type: cell-based, human; settings: human
Method: Compound cytotoxicity was evaluated against HepG2 (ATCC-®HB-8065 liver hepatoceullular carcinoma) and HEK293 (ATCC®CRL-1573, embryonic kidney) human cell lines using standard (3-(4,5-dimethylthiazol-2-yl)−2,5-diphenyltetrazolium bromide (MTT) assay protocol with slight changes. In brief, HepG2 and HEK293 cells (assessed annually for mycoplasma contamination) were seeded as 1.5 × 10^4 cells per well in a clear 96-well tissue culture treated plate in a final volume of 100 μL in Dulbecco’s Modified Eagle Medium (DMEM)(GIBCO-Invitrogen #11995-073), in which 1% of FBS was added. Cells were incubated for 24 h at 37 °C, 5% CO2 to allow cells to attach to the plates. […] After the incubation, 0.4 mg mL^−1 MTT (3-(4,5-dimethylthiazol-2-yl)−2,5-diphenyltetrazolium bromide) (Invitrogen) was added to each well. The plates were then incubated for 2 h at 37 °C, 5% CO2. The media was removed, and purple formazan crystals were resuspended in 60 μL of DMSO. The absorbance was read at 570 nm using a Polarstar Omega plate reader. The data was then analysed by Prism software. Results are presented as the average percentage of control ± S.D. for each set of duplicate wells using the following equation: percent viability = (ABSTEST – ABSPOSITIVE CTRL / ABSUNTREATED –ABS POSITIVE CTRL)×100.

Cytotoxicity MTT assay [6] = type: cell-based, human; settings: human; remark: listed apart in the source
Method: Compound cytotoxicity was evaluated against HepG2 (ATCC-®HB-8065 liver hepatoceullular carcinoma) and HEK293 (ATCC®CRL-1573, embryonic kidney) human cell lines using standard (3-(4,5-dimethylthiazol-2-yl)−2,5-diphenyltetrazolium bromide (MTT) assay protocol with slight changes. In brief, HepG2 and HEK293 cells (assessed annually for mycoplasma contamination) were seeded as 1.5 × 10^4 cells per well in a clear 96-well tissue culture treated plate in a final volume of 100 μL in Dulbecco’s Modified Eagle Medium (DMEM)(GIBCO-Invitrogen #11995-073), in which 1% of FBS was added. Cells were incubated for 24 h at 37 °C, 5% CO2 to allow cells to attach to the plates. Compounds prepared at 100 µM to 0.046 µM in threefold dilutions were added into each well and incubated for 24 h at 37 °C, 5% CO2. After the incubation, 0.4 mg mL^−1 MTT (3-(4,5-dimethylthiazol-2-yl)−2,5-diphenyltetrazolium bromide) (Invitrogen) was added to each well. The plates were then incubated for 2 h at 37 °C, 5% CO2. The media was removed, and purple formazan crystals were resuspended in 60 μL of DMSO. The absorbance was read at 570 nm using a Polarstar Omega plate reader. The data was then analysed by Prism software. Results are presented as the average percentage of control ± S.D. for each set of duplicate wells using the following equation: percent viability = (ABSTEST – ABSPOSITIVE CTRL / ABSUNTREATED –ABS POSITIVE CTRL)×100.

[7] = test system: Vancomycin-resistant S. aureus NARSA VRS4; assay: microbe, parasite or virus in culture; type: cell-based, Staphylococcus aureus; settings: Vancomycin-resistant NARSA VRS4

| Structure (SMILES) | MIC MRSA [1] [µg/mL] | MIC VRE [2] [µg/mL] | MIC MDR S.P. [3] [µg/mL] | MIC VISA [4] [µg/mL] | CC50 at 24 h (Cytotoxicity MTT assay [5]) [µM] | CC50 at 24 h (Cytotoxicity MTT assay [6]) [µM] | MIC VRSA [7] [µg/mL] |
| --- | --- | --- | --- | --- | --- | --- | --- |
| CCCCCCCCCCCCCC(=O)NCC(=O)N[C@@H](CO)C(=O)N[C@@H](CO)C(=O)N[C@@H](CCCCN)C(=O)N[C@@H](CO)C(=O)N1CCC[C@H]1C(=O)N[C@@H](CO)C(=O)N[C@@H](CCCCN)C(=O)N[C@@H](CCCCN)C(=O)N[C@@H](CCCCN)C(=O)N1CCC[C@H]1C(=O)N[C@@H](CSSCCNC(=O)[C@H]1NC(=O)[C@H]2NC(=O)[C@H](NC(=O)[C@@H]3NC(=O)[C@H](CC(N)=O)NC(=O)[C@H](NC(=O)[C@@H](CC(C)C)NC)[C@H](O)c4ccc(c(Cl)c4)Oc4cc3cc(c4O[C@@H]3O[C@H](CO)[C@@H](O)[C@H](O)[C@H]3O[C@H]3C[C@](C)(N)[C@H](O)[C@H](C)O3)Oc3ccc(cc3Cl)[C@H]2O)c2ccc(O)c(c2)-c2c(O)cc(O)cc21)C(N)=O [Compound 12] | 0.09 (≈ 0.0305 µM) | 0.007 (≈ 0.00237 µM) | 0.06 (≈ 0.0203 µM) | 0.5 (≈ 0.17 µM) | 26 | 41 |  |
| CCCCCCCCCCCC(=O)N[C@@H](CCCCN)C(=O)N[C@@H](CCCCN)C(=O)N[C@@H](CCCCN)C(=O)N[C@@H](CCCCNC(=O)[C@H]1NC(=O)[C@H]2NC(=O)[C@H](NC(=O)[C@@H]3NC(=O)[C@H](CC(N)=O)NC(=O)[C@H](NC(=O)[C@@H](CC(C)C)NC)[C@H](O)c4ccc(c(Cl)c4)Oc4cc3cc(c4O[C@@H]3O[C@H](CO)[C@@H](O)[C@H](O)[C@H]3O[C@H]3C[C@](C)(N)[C@H](O)[C@H](C)O3)Oc3ccc(cc3Cl)[C@H]2O)c2ccc(O)c(c2)-c2c(O)cc(O)cc21)C(=O)O [Compound 37, nC11CO-KKK-K(Vancomycin)-OH] | 0.005 (≈ 0.00233 µM) | 0.5 (≈ 0.233 µM) | <0.003 | 0.06 (≈ 0.028 µM) |  |  | 0.75 (≈ 0.35 µM) |
| CCCCCCCCCC(=O)N[C@@H](CCCCN)C(=O)N[C@@H](CCCCN)C(=O)N[C@@H](CCCCN)C(=O)N[C@@H](CCCCNC(=O)[C@H]1NC(=O)[C@H]2NC(=O)[C@H](NC(=O)[C@@H]3NC(=O)[C@H](CC(N)=O)NC(=O)[C@H](NC(=O)[C@@H](CC(C)C)NC)[C@H](O)c4ccc(c(Cl)c4)Oc4cc3cc(c4O[C@@H]3O[C@H](CO)[C@@H](O)[C@H](O)[C@H]3O[C@H]3C[C@](C)(N)[C@H](O)[C@H](C)O3)Oc3ccc(cc3Cl)[C@H]2O)c2ccc(O)c(c2)-c2c(O)cc(O)cc21)C(=O)O [Compound 36, nC9CO-KKK-K(Vancomycin)-OH] | 0.06 (≈ 0.0284 µM) | 8 (≈ 3.78 µM) | 0.06 (≈ 0.0284 µM) | 0.75 (≈ 0.354 µM) |  |  | 0.75 (≈ 0.354 µM) |
| CCCCCCCCCCCC(=O)NCC(=O)N[C@@H](CO)C(=O)N[C@@H](CO)C(=O)N[C@@H](CCCCN)C(=O)N[C@@H](CO)C(=O)N1CCC[C@H]1C(=O)N[C@@H](CO)C(=O)N[C@@H](CCCCN)C(=O)N[C@@H](CCCCN)C(=O)N[C@@H](CCCCN)C(=O)N[C@@H](CCCCN)C(=O)N[C@@H](CCCCN)C(=O)N[C@@H](CCCCN)C(=O)N1CCC[C@H]1C(=O)NCC(=O)N[C@@H](CC(=O)O)C(=O)N[C@@H](CSSCCNC(=O)[C@H]1NC(=O)[C@H]2NC(=O)[C@H](NC(=O)[C@@H]3NC(=O)[C@H](CC(N)=O)NC(=O)[C@H](NC(=O)[C@@H](CC(C)C)NC)[C@H](O)c4ccc(c(Cl)c4)Oc4cc3cc(c4O[C@@H]3O[C@H](CO)[C@@H](O)[C@H](O)[C@H]3O[C@H]3C[C@](C)(N)[C@H](O)[C@H](C)O3)Oc3ccc(cc3Cl)[C@H]2O)c2ccc(O)c(c2)-c2c(O)cc(O)cc21)C(N)=O [Compound 7] | 0.09 (≈ 0.0259 µM) | 0.02 (≈ 0.00575 µM) | 0.06 (≈ 0.0173 µM) | 1 (≈ 0.288 µM) | 65 | 89 |  |

Reference: article PMC5750218, “Protein-inspired antibiotics active against vancomycin- and daptomycin-resistant bacteria” (Nature Communications, 2018)
